US5210239A, “Ouinone derivatives and pharmacological use” (Eisai Co., Ltd., priority 1989, dated 1993)
Where two headings read alike, the source gives them in different places.

Experiments:
[1] = tested on: mouse propionibactrium acnes (P. acnes)-lipopolysaccharide (LPS)-induced fulminant hepatitis model; experiment: mouse P. acnes-lipopolysaccharide (LPS)-induced fulminant hepatitis model; format: in vivo, male Balb/c mice; conditions: for responders at 100 mg/kg: Cutibacterium acnes, po, 24 h, read-out: Survival rate (%), test compd. group
Description: One mg/mouse of heat-killed P. acnes was intravenously injected into a five-week-old male Balb/c mice and LPS was additionally intravenously injected at a dose of 1 microgram/mouse 7 days after the injection of P.acnes to induce fulminant hepatitis. Each test compound was suspended in a 0.5% methylcellulose solution and orally administered at a dose of 100 mg/kg 30 min before the intravenous injection of LPS.
Survival rates and GPT activity in plasma of the survivors were determined in 24 hours after the intravenous injection of LPS. The mice treated with each test compound against the lethality and hepatic injury induced with P. acnes-LPS are shown in Table 2.

[2] = tested on: rat D-galactosamine (GalN)-induced acute hepatitis model; experiment: rat D-galactosamine (GalN)-induced acute hepatitis model; format: in vivo, Fischer (F 344) male rat; conditions: 300 mg/kg GalN s.c., compound 100 mg/kg oral 1 hr after GalN, blood 48 hr after GalN
Description: 300 mg/kg of GalN was subcutaneously injected into a Fischer (F 344) male rat(s) (around 180 g) to induce acute hepatitis. Each test compound was suspended in a 0.5% aqueous methylcellulose solution and orally administered at a dose of 100 mg/kg one hr after the injection of GalN.
Blood was sampled from the tail of the rat 48 hr after the injection of GalN. The blood clotting time was measured by Hepaplastin test (HPT), and at the same time GPT activity in the plasma was measured enzymatically.

[3] = Toxicity test, one week oral administration; format: in vivo; design: dose or concentration left out as unconfirmed; conditions: seven-week male SD rat
[4] = plasma GPT of survivors 24 hours after LPS, 100 mg/kg oral, value is test group
[5] = read-out: Percentage inhibition (%) GPT (plasma GPT activity)
[6] = read-out: Percentage inhibition (%) HPT (blood clotting time, Hepaplastin test)

| SMILES | responders at 100 mg/kg [1] | GPT (survival rate), test compd. group (%) [part 1] [1, 4] | inhibition in vivo at 100 mg/kg [2, 5] | inhibition in vivo at 100 mg/kg [2, 6] | death [3] | GPT (Ku/ml), test compd. group [part 2] [1, 4] |
| --- | --- | --- | --- | --- | --- | --- |
| CCOc1c(O)c(C)c(/C=C(\Cc2ccccc2)C(=O)O)c(OCC)c1OCC [compound 79] | 50% | 1009 ± 196% | 94% | 89% | – | – |
| CCOC1=C(OC)C(=O)C(C)=C(/C=C(\CCC(C)C)C(=O)O)C1=O [compound 135] | 50% | – | 52% | 51% | – | – |
| COC1=C(/C=C(\CC2CCCCC2)C(=O)O)C(=O)C(OC)=C(OC)C1=O [compound 149] | 67% | 209 ± 66% | 93% | 95% | – | – |
| COC1=C(/C=C(\CCC(C)C)C(=O)O)C(=O)C(OC)=C(OC)C1=O [compound 137] | 30% | – | 77% | 73% | no compound was found to cause death | – |
| CCOC1=C(OC)C(=O)C(C)=C(/C=C(\CC2CCCCC2)C(=O)O)C1=O [compound 142] | 100% | 381 ± 19% | 76% | 67% | no compound was found to cause death | – |
| COc1c(O)c(C)c(/C=C(\C(=O)O)c2ccccc2)c(OC)c1OC [Example 14, (Z)-3-[5-(1-Hydroxy-6-methyl-2,3,4-trimethoxy)phenyl]-2-phenyl-2-propenoic acid] | 100% | 297 ± 50% | 78% | 76% | – | – |
| CCCCCCCCC/C(=C\C1=C(C)C(=O)C(OC)=C(OC)C1=O)C(=O)O [Example 4, (E)-3-[5-(2,3-Dimethoxy-6-methyl-1,4-benzoquinoyl)]-2-nonyl-2-propenoic acid] | 64% | 358 ± 40% | 91% | 87% | no compound was found to cause death | – |
| COC1=C(OC)C(=O)C(/C=C(\Cc2cccs2)C(=O)O)=C(C)C1=O [compound 217] | 80% | – | 97% | 99% | – | – |
| CCOC1=C(OCC)C(=O)C(/C=C(\CC2CCCCC2)C(=O)O)=C(C)C1=O [compound 144] | 100% | 280 ± 31% | 78% | 79% | – | – |
| CCCCC/C(=C\c1c(C)c(O)c(OCC)c(OCC)c1OCC)C(=O)O [compound 20] | 70% | 293 ± 65% | 68% | 68% | – | – |
| COC1=C(OC)C(=O)C(/C=C(\CCCSC)C(=O)O)=C(C)C1=O [compound 183] | 22% | – | 86% | 80% | – | – |
| CCCCCCCCC/C(=C\c1c(C)c(O)c(OC)c(OC)c1O)C(=O)O [compound 127] | – | – | 60% | 71% | – | – |
| COC1=C(OC)C(=O)C(/C=C(\CC2CCCCC2)C(=O)O)=C(C)C1=O [compound 141] | 25% | – | 100% | 98% | – | – |
| COC1=C(OC)C(=O)C(/C=C(\CCCCC#N)C(=O)O)=C(C)C1=O [compound 176] | 80% | – | 96% | 97% | – | 297 ± 50 Ku/ml |
